# Laboratory results reported in patent US7091351B2, “Vanadium compounds for treating cancer” (Parker Hughes Institute, priority 1998, dated 2006).
# Where two headings read alike, the source gives them in different places.
# What was measured:
# NALM-6 leukemia cells = test: Mitochondrial transmembrane potential, DiIC1 staining, flow cytometry; assay type: cell-based, human
# Procedure: […] Mitochondrial membrane potential (ΔΨm) was measured using two dyes including a lipophollic cation 5,5′,6,6′-tetrachloro-1,1′,3,3′-tetraethlybenzimidazolylcarbocyanine iodide (JC-1; Molecular probes, Eugene, Oreg.) and a cyanine dye, 1,1′,3,3,3′,3′-hexamethylindodicarbocyanine iodide [DiIC1(5); Molecular probes] as earlier described (22). JC-1 can enter the cells, and selectively mitochondria, and has been used to assess ΔΨm in a variety of studies (23,24). JC-1 is a monomer at 527 nm after being excited at 490 nm; with polarization of ΔΨm, J-aggregates are formed that shift emission to 590 nm (23, 24). This can be detected on a flow cytometer by assessing the green signal (at 527 nm) and green-orange signal (at 590 nm) simultaneously, creating an index of the number of cells polarized and depolarized mitochondria. The treated and control cells were washed and plated in a 6-well plate at 1×10^6 cells in fresh medium. JC-1 was added at a concentration of 10 μg/ml, and cells were incubated for 10 min in the dark at room temp. Cells were then washed twice with ice-cold PBS and immediately analyzed using Becton Dickinson (San Jose, Calif.) Calibur flow cytometer. At least 2×10^3 cells were analyzed to determine the percentage of cells with polarized and depolarized mitochondria. DiIC1(5), a cyanine dye is amphioatheic and cationic that concentrate in energized mitochondria and has been used in a variety of studies to measure the mitochondrial membrane potential (25–27). NALM-6 cells were stained with DiIC1(5) at 40 nM concentration for 30 min in the dark as described for JC-1. The cells were analyzed using Vantage Becton Dickinson cell sorter equipped with HeNe laser with excitation at 635 nm and the fluorescence was collected at 666 nm.
# [1] = system: U266BL multiple myeloma cells; test: MTT cytotoxicity assay of oxovanadium(IV) compounds, U266BL; assay type: cell-based, human; conditions: 48 hr
# Procedure: The cytotoxicity of oxovanadium (W) complexes listed in Table 6 were tested against 9 different human cancer cell lines was performed using the MTT (3-[4,5-dimethylthiazol-2-yl]-2,5-diphenyl tetrazolium bromide) assay (Boehringer Mannheim Corp., Indianapolis, Ind.) as described previously (20). Briefly, exponentially growing tumor cells were seeded into a 96-well plate at a density of 4×10^4cells/well and incubated with medium containing the oxovanadium(IV) compounds concentrations ranging from 0.1 to 250 μM for 48 hours at 37° C. in a humidified 5% CO2 atmosphere. Triplicate wells were used for each treatment. To each well, 10 μl of MTT (0.5 mg/ml final concentration) was added and the plates were incubated at 37° C. for 4 hours to allow MTT to form formazan crystals by reacting with metabolically active cells . The formazan crystals were solubilized overnight at 37° C. in a solution containing 10% SDS in 0.01 M HCl. The absorbence of each well was measured in a microplate reader (Labsystems) at 540 nm and a reference wavelength of 690 nm. To translate the OD540 values into the number of live cells in each well, the OD540 values were compared to those on standard OD540—versus—cell number curves generated for each cell line. The percent survival was calculated using the formula: % survival=Live cell number[test]/Live cell number [control]×100. The IC50 values were calculated by non-linear regression analysis using an Graphpad Prism software version 2.0 (Graphpad Software, Inc., San Diego, Calif.).
substance,measurement,setting,value
"bis(4,7-dimethyl-1,10-phenanthroline)sulfatooxovanadium(IV) [Compound 29]",fraction of DiIC1-negative cells with depolarized mitochondria,"NALM-6 leukemia cells; 1 μM, 48 hours (vehicle 6.5%)",91.5%
same,EC50,"NALM-6 leukemia cells; 24 hr treatment, read-out: average EC50 for depolarization of mitochondria (decreased DiIC1 staining), 24 hr",3600 nM
same,EC50,"NALM-6 leukemia cells; 48 hr treatment, read-out: average EC50 for depolarization of mitochondria (decreased DiIC1 staining), 48 hr",300 nM
same,EC50,"NALM-6 leukemia cells; 72 hr treatment, read-out: average EC50 for depolarization of mitochondria (decreased DiIC1 staining), 72 hr",80 nM
same,IC50,[1],500 ± 20 nM
